Test results as given in publication PMC10787067, “EBF2 Links KMT2D‐Mediated H3K4me1 to Suppress Pancreatic Cancer Progression via Upregulating KLLN” (Advanced Science, 2023).

Legend:
KLLN = experiment: qPCR of KLLN mRNA in SW1990 cells; format: cell-based, Human; conditions: vs negative control, p < 0.01, Student's t-test, concentration not given, Figure 4E
Method: Total RNA was extracted from cultured cells using RNAiso plus (Takara, Japan). cDNA was synthesized from every 1 µg of total RNA in reverse transcription reactions with Hifair III 1st Strand cDNA Synthesis SuperMix for qPCR (Cat No. 11 141; Yeasen, Shanghai, China). qPCR was performed with Hieff qPCR SYBR Green Master Mix (Yeasen) using a Roche LightCycler 96 Real‐Time PCR System. Cycling conditions were set at 94 °C for 15 s, 60 °C for 1 min, and 72 °C for 30 s. Each reaction was performed in triplicate. The primer sequences were as follows: KMT2D‐F: 5′‐[…]‐3′; KMT2D‐R: 5′‐[…]‐3′; EBF2‐F: 5′‐[…]‐3′; EBF2‐R: 5′‐[…]‐3′; KLLN‐F: 5′‐[…]‐3’; KLLN‐R: 5′‐[…]‐3′. β‐actin‐F: 5′‐[…]‐3′; β‐actin‐R: 5′‐[…]‐3′.

H3K4me1 [1] = experiment: Western blot of H3K4me1 in SW1990 cells; format: cell-based, Human
SW1990 cells = experiment: Colony-formation and CCK-8 proliferation, SW1990; format: cell-based, Human; conditions: vs Vehicle, p < 0.01, Figure 5F,G
Method: (§1) Cell proliferation was determined by Cell Counting Kit‐8 (CCK‐8, Yeasen) and EdU Cell Proliferation Assay kit (Ribobio, Guangzhou, China). Colony formation was observed by staining with 0.1% crystal violet (Sangon Biotechnologies Inc., Shanghai, China). Cell migration and invasion were assessed using […] pore Transwell chambers with (for invasion assay) or without Matrigel (for migration assay). For migration assay, 5 × 10^4 SW1990 or 3 × 10^4 PANC‐1 cells were seeded into the upper chamber of the Transwell apparatus (Corning, USA) in serum‐free medium, and the medium supplemented with 10% FBS was added to the bottom chamber. For invasion assay, 10 × 10^4 SW1990 or 6 × 10^4 PANC‐1 cells were seeded into the upper Corning BioCoat Matrigel invasion chamber. After 24 h, the cells on the upper surface that had not passed through the polycarbonate filter were removed using a moistened cotton swab; the cells having migrated to the lower membrane surface were fixed in 100% methanol for 10 min, stained with 0.4% crystal violet for 15 min, and counted under a microscope (Nikon, Japan) at ×100 magnification. The cells were manually counted using Image J software. Three independent experiments were performed.

PANC‐1 cells [2] = experiment: Colony-formation and CCK-8 proliferation, PANC-1; format: cell-based, Human; conditions: vs Vehicle, p < 0.01, Figure S4E,F
Method: as §1

H3K4me1 [3] = experiment: Western blot and IHC of metastatic foci from treated mice, H3K4me1; format: in vivo, Human (xenograft in BALB/c nude mice); conditions: control vs GSK-LSD1-treated lung metastasis tissues, Figure 5L,M
H3K4me1 [4] = experiment: IHC of H3K4me1 in PDX tumors; format: in vivo, Human (xenograft in immunodeficient nude mice); conditions: vs control, Figure 5O
Method: PDAC and tumor adjacent tissues were obtained from the Second Affiliated Hospital of Nanjing Medical University. Ninety pairs of ductal adenocarcinoma and adjacent normal pancreatic tissue sections (HPanA180Su03) were obtained from Shanghai Outdo Biotech (National Human Genetic Resources Sharing Service Platform with code No. XT20‐021, Shanghai, China), under the approval by the Ethics Committee of Shanghai Outdo Biotech. IHC staining was performed on paraffin‐embedded sections of biopsies from ductal adenocarcinoma patients and controls according to standard protocols (CST). […] All pancreatic cancer tissue sections were examined by two experienced pathologists, and the EBF2, KMT2D or KLLN stained in the tissue was scored independently using the H‐score system by two pathologists blinded to the clinical data. […] For the Pearson correlation scatter plot of molecules in ductal adenocarcinoma, the H score was calculated by adding the multiplication product of the different staining intensities in category A (0–3) with the percentage of positive cells, i.e., H score (0–300 scale) = 3 × (% at 3+) + 2 × (% at 2+) + 1 × (% at 1+). […] The between‐group difference in the overall survival was evaluated by the log‐rank test. The correlation between EBF2, KMT2D, and KLLN expression in ductal adenocarcinoma was assessed via Pearson correlation analysis. […]

EBF2 = experiment: Co-IP with H3K4me1 antibodies from GSK-LSD1-treated SW1990 cell lysates; format: cell-based, Human; conditions: vs vehicle, Figure 5P
Method: Co‐immunoprecipitation assay was performed as described previously.^[ [61] ^] Briefly, SW1990 cells were transfected with indicated constructs or treated with GSK‐LSD1, washed with cold phosphate buffered saline (PBS), and lysed with cold cell lysis buffer. Then, the lysates were incubated with appropriate specific antibodies or normal rabbit IgG at 4 °C overnight in constant rotation, followed by the addition of protein A/G Sepharose beads and incubation for 2 h at 4 °C. The beads were then washed five times by the lysis buffer. Bead‐bound proteins were resolved by SDS‐PAGE and detected by immunoblotting using indicated antibodies.

PANC‐1 cells [5] = experiment: KLLN rescue experiments (CCK-8, colony-formation, Transwell), PANC-1; format: cell-based, Human; conditions: p < 0.01, Figure S4H-J
Method: as §1

Compound: c1ccc([C@@H]2C[C@H]2NC2CCNCC2)cc1 [GSK‐LSD1]
- KLLN mRNA level (KLLN): significant upregulation
- H3K4me1 level, concentration dependence (H3K4me1 [1]; 0, 1, 10, or 100 µM GSK-LSD1, Figure 5E): increased the levels of H3K4me1 and KLLN in a concentration‐dependent manner
- H3K4me1 level in Co-IP experiment (H3K4me1 [1]; vs vehicle, concentration not given, Figure 5P): increased H3K4me1 level
- proliferation (SW1990 cells): significantly inhibited
- proliferation (PANC‐1 cells [2]): significantly inhibited
- H3K4me1 in metastatic foci (H3K4me1 [3]): upregulation
- H3K4me1 expression in PDX tumors (H3K4me1 [4]): significantly upregulated
- EBF2 co-immunoprecipitated with H3K4me1 (EBF2; H3K4me1 antibodies): co‐immunoprecipitated more EBF2
- EBF2 expression (EBF2; concentration not given): without affect EBF2 expression
- tumor-suppressive phenotype of GSK-LSD1 on knockdown of KLLN (PANC‐1 cells [5]): markedly attenuated
